These are literature values, as cited in US10544066B2, “Microencapsulated nitrification inhibitor compositions” (DOW AGROSCIENCES LLC, priority 2014, dated 2020).

Each structure is given as a SMILES string.

The conditions of the series: at 23° Celsius.

As to `Clc1cccc(C(Cl)(Cl)Cl)n1` [nitrapyrin, 2-chloro-6-(trichloromethyl)pyridine], the vapor pressure is reported as 2.8×10^−3 mm Hg.
